{"source": "patent US20220195432A9", "about": "(priority 2020, published 2022)", "key": {"[1]": {"tested_on": "SARS-CoV2", "test": "SARS-CoV2 infection of human ACE2 mice, paquinimod nasal drop group versus control", "type": "in vivo"}, "[2]": {"tested_on": "MHV", "type": "in vivo", "conditions": "IFNar knockout mice infected with MHV, paquinimod nasal drop group, FIG. 17"}, "[3]": {"tested_on": "IAV", "set-up": "species or system mice", "conditions": "mouse, in vivo"}, "[4]": {"tested_on": "MHV", "type": "in vivo, mice"}, "[5]": {"conditions": "SARS-CoV2 pneumonia animal model"}, "[6]": {"conditions": "MHV-infected lung tissues of IFNar knockout mice, FIG. 18"}}, "data": [{"smiles": "CCc1cccc2c1c(O)c(C(=O)N(CC)c1ccccc1)c(=O)n2C", "note": "[paquinimod]", "values": [{"measurement": "replication of SARS-CoV-2", "setting": "[1]; FIG. 18", "result": "inhibiting replication"}, {"measurement": "inflammation level", "setting": "[1]; [5]", "result": "decreasing the inflammation level"}, {"measurement": "virus titer in tissues", "setting": "[1]; [5]", "result": "inhibits the virus titer in tissues"}, {"measurement": "survival rate", "setting": "[2]", "result": "increased survival rate"}, {"measurement": "survival rate", "setting": "[3]", "result": "no significant difference"}, {"measurement": "inflammation and lung damage caused by inflammation", "setting": "[4]; [6]", "result": "reducing inflammation and lung damage"}, {"measurement": "lung S100A8 gene expression", "setting": "[4]; [6]", "result": "not up-regulated"}, {"measurement": "activation of neutrophils caused by coronavirus infection", "setting": "[4]; coronavirus-infected mice", "result": "inhibit the activation of neutrophils"}, {"measurement": "replication of MHV", "setting": "[4]; lung tissues of IFNar knockout mice, FIG. 18", "result": "inhibiting replication"}]}]}
